Experimental data taken from PubChem BioAssay AID328 (DTP/NCI, 2004).
Several values for one entry are separate records, joined by “and”; a condition that tells them apart may be missing. Equal entries are not always repeated. Inconclusive results and toxic doses are left out. Rule for the calls: active = survival T/C of 150% or more; inactive = T/C below 125% in these data.

Tested on: BDF1 mice, P388 leukemia ip, median survival T/C
Test: NCI In Vivo Anticancer Drug Screen. Data for tumor model P388 Leukemia (intraperitoneal) in B6D2F1 (BDF1) mice
Conditions: endpoint: median survival time, higher = longer survival
In short: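 Mice carrying the transplantable tumour receive compound or vehicle. Survival is followed in each arm, and the treated measure is divided by the vehicle measure.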

[1] = dose: 50.0 mg/kg/injection, schedule: Q01DX009 (ip), vehicle: saline with Tween-80
[2] = dose: 100.0 mg/kg/injection, schedule: Q01DX009 (ip), vehicle: saline with Tween-80
[3] = dose: 200.0 mg/kg/injection, schedule: Q01DX009 (ip), vehicle: saline with Tween-80
[4] = dose: 150.0 mg/kg/injection, schedule: Q01DX009 (ip), vehicle: Klucel (hydroxypropylcellulose) (HPC)
[5] = dose: 25.0 mg/kg/injection, schedule: Q01DX009 (ip), vehicle: saline with Tween-80
[6] = dose: 200.0 mg/kg/injection, schedule: Q04DX003 (ip), vehicle: saline sonified
[7] = dose: 12.5 mg/kg/injection, schedule: Q01DX009 (ip), vehicle: saline with Tween-80
[8] = dose: 200.0 mg/kg/injection, schedule: Q04DX003 (ip), vehicle: saline with Tween-80
[9] = dose: 400.0 mg/kg/injection, schedule: Q04DX003 (ip), vehicle: saline with Tween-80

Measured: T/C

CNC1C(OC2C(OC3C(O)C(O)C(O)C(O)C3O)OC(C)C2(O)CO)OC(CO)C(O)C1O (stereo unspecified) (tested in a mixture with another compound)
inactive: dose: 100.0 mg/kg/injection, schedule: Q01DX009 (ip), vehicle: saline 100 % of control | dose: 200.0 mg/kg/injection, schedule: Q01DX009 (ip), vehicle: saline 100 % of control | dose: 400.0 mg/kg/injection, schedule: Q01DX009 (ip), vehicle: saline 100 % of control

Nc1cc(=O)n(-c2ccccc2)[nH]1
inactive: [1] 105 % of control | [2] 102 % of control | [3] 109 % of control

COc1ccc(CCC(C(=O)O)c2ccc(OC)c(OC)c2)cc1OC (stereo unspecified)
inactive: dose: 45.0 mg/kg/injection, schedule: Q01DX009 (ip), vehicle: Klucel (hydroxypropylcellulose) (HPC) 95 % of control | dose: 65.0 mg/kg/injection, schedule: Q01DX009 (ip), vehicle: Klucel (hydroxypropylcellulose) (HPC) 90 % of control | dose: 100.0 mg/kg/injection, schedule: Q01DX009 (ip), vehicle: Klucel (hydroxypropylcellulose) (HPC) 95 % of control | [4] 90 % of control

Cc1nc(N2CC2)nc(N2CC2)c1[N+](=O)[O-]
inactive: dose: 0.62 mg/kg/injection, schedule: Q01DX010 (ip), vehicle: saline 122 % of control | dose: 0.63 mg/kg/injection, schedule: Q01DX010 (ip), vehicle: saline 100 % of control

O=C1CSCC(=O)O1
inactive: dose: 50.0 mg/kg/injection, schedule: Q01DX009 (ip), vehicle: Klucel (hydroxypropylcellulose) (HPC) 105 % of control | dose: 50.0 mg/kg/injection, schedule: Q04DX003 (ip), vehicle: Klucel (hydroxypropylcellulose) (HPC) 95 % of control | dose: 100.0 mg/kg/injection, schedule: Q04DX003 (ip), vehicle: Klucel (hydroxypropylcellulose) (HPC) 95 % of control | dose: 200.0 mg/kg/injection, schedule: Q04DX003 (ip), vehicle: Klucel (hydroxypropylcellulose) (HPC) 109 % of control

CN(C)N=Nc1ccc(CCCC(=O)NN)cc1
inactive: dose: 1.56 mg/kg/injection, schedule: Q01DX009 (ip), vehicle: saline with Tween-80 109 % of control | dose: 2.0 mg/kg/injection, schedule: Q01DX009 (ip), vehicle: saline with Tween-80 120 % of control | [5] 92 % of control | dose: 50.0 mg/kg/injection, schedule: Q04DX003 (ip), vehicle: saline sonified 100 % of control | [2] 100 % of control | dose: 100.0 mg/kg/injection, schedule: Q04DX003 (ip), vehicle: saline sonified 115 % of control | [6] 110 % of control

Nc1nc(N)c2c(Cl)c(CNc3ccc(Cl)c(Cl)c3)ccc2n1
active: dose: 6.25 mg/kg/injection, schedule: Q01DX009 (ip), vehicle: saline with Tween-80 154 % of control | [7] 169 % of control | dose: 12.5 mg/kg/injection, schedule: Q01DX009 (ip), vehicle: water 179 % of control | dose: 25.0 mg/kg/injection, schedule: Q01DX009 (ip), vehicle: water 203 % of control | dose: 50.0 mg/kg/injection, schedule: Q04DX003 (ip), vehicle: water 169 % of control | dose: 100.0 mg/kg/injection, schedule: Q04DX003 (ip), vehicle: water 153 % of control and 173 % of control
inactive: dose: 6.25 mg/kg/injection, schedule: Q01DX009 (ip), vehicle: water 123 % of control | dose: 25.0 mg/kg/injection, schedule: Q04DX003 (ip), vehicle: water 116 % of control | dose: 50.0 mg/kg/injection, schedule: Q01DX009 (ip), vehicle: water 88 % of control | dose: 300.0 mg/kg/injection, schedule: Q04DX003 (ip), vehicle: water 86 % of control

ClC(Cl)(Cl)C(N1CCN(c2ccccc2)CC1)N1CCN(c2ccccc2)CC1
inactive: [1] 104 % of control | [2] 100 % of control | [3] 95 % of control

COc1ccc(C2c3cc4c(c(OC)c3CC(CO)C2C(=O)O)OCO4)cc1OC (stereo unspecified)
inactive: dose: 9.38 mg/kg/injection, schedule: Q01DX010 (ip), vehicle: water 95 % of control | dose: 18.75 mg/kg/injection, schedule: Q01DX010 (ip), vehicle: water 90 % of control | dose: 37.5 mg/kg/injection, schedule: Q01DX010 (ip), vehicle: water 90 % of control | dose: 50.0 mg/kg/injection, schedule: Q01DX001 (ip), vehicle: water 110 % of control | dose: 75.0 mg/kg/injection, schedule: Q01DX010 (ip), vehicle: water 110 % of control | dose: 100.0 mg/kg/injection, schedule: Q01DX001 (ip), vehicle: water 100 % of control | dose: 150.0 mg/kg/injection, schedule: Q01DX010 (ip), vehicle: water 115 % of control | dose: 200.0 mg/kg/injection, schedule: Q01DX001 (ip), vehicle: water 110 % of control | dose: 400.0 mg/kg/injection, schedule: Q01DX001 (ip), vehicle: water 110 % of control

OC1OC2COC(c3ccccc3)OC2C(O)C1O (stereo unspecified)
inactive: dose: 75.0 mg/kg/injection, schedule: Q01DX009 (ip), vehicle: saline with Tween-80 107 % of control | dose: 150.0 mg/kg/injection, schedule: Q01DX009 (ip), vehicle: saline with Tween-80 94 % of control | dose: 300.0 mg/kg/injection, schedule: Q01DX009 (ip), vehicle: saline with Tween-80 91 % of control

COC(=O)/C=C/c1ccc([N+](=O)[O-])cc1
inactive: dose: 100.0 mg/kg/injection, schedule: Q04DX003 (ip), vehicle: saline with Tween-80 118 % of control | [8] 113 % of control | [9] 109 % of control

CNc1ccc(C(=O)O)c(Cl)c1
inactive: dose: 75.0 mg/kg/injection, schedule: Q04DX003 (ip), vehicle: saline 100 % of control | dose: 150.0 mg/kg/injection, schedule: Q04DX003 (ip), vehicle: saline 95 % of control | dose: 300.0 mg/kg/injection, schedule: Q04DX003 (ip), vehicle: saline 100 % of control

O=[N+]([O-])C=C1CCCCC1
inactive: dose: 25.0 mg/kg/injection, schedule: Q01DX001 (ip), vehicle: saline with Tween-80 113 % of control | dose: 50.0 mg/kg/injection, schedule: Q01DX001 (ip), vehicle: saline with Tween-80 118 % of control | dose: 100.0 mg/kg/injection, schedule: Q01DX001 (ip), vehicle: saline with Tween-80 113 % of control

C=C(C)CSC(=S)NNc1ccccc1
inactive: dose: 37.5 mg/kg/injection, schedule: Q04DX003 (ip), vehicle: acetone 109 % of control | dose: 56.25 mg/kg/injection, schedule: Q01DX009 (ip), vehicle: Klucel (hydroxypropylcellulose) (HPC) 115 % of control | dose: 75.0 mg/kg/injection, schedule: Q04DX003 (ip), vehicle: acetone 100 % of control | dose: 100.0 mg/kg/injection, schedule: Q01DX001 (ip), vehicle: alcohol 100 % of control | dose: 112.5 mg/kg/injection, schedule: Q01DX009 (ip), vehicle: Klucel (hydroxypropylcellulose) (HPC) 110 % of control | [4] 115 % of control | dose: 150.0 mg/kg/injection, schedule: Q01DX009 (ip), vehicle: alcohol 109 % of control | dose: 150.0 mg/kg/injection, schedule: Q04DX003 (ip), vehicle: acetone 104 % of control | dose: 200.0 mg/kg/injection, schedule: Q01DX001 (ip), vehicle: alcohol 104 % of control | dose: 225.0 mg/kg/injection, schedule: Q01DX009 (ip), vehicle: Klucel (hydroxypropylcellulose) (HPC) 115 % of control | dose: 225.0 mg/kg/injection, schedule: Q04DX003 (ip), vehicle: alcohol 100 % of control | dose: 335.0 mg/kg/injection, schedule: Q01DX009 (ip), vehicle: Klucel (hydroxypropylcellulose) (HPC) 115 % of control | dose: 340.0 mg/kg/injection, schedule: Q04DX003 (ip), vehicle: alcohol 95 % of control

Nc1ncnc2[nH]c(=O)[nH]c12
inactive: [7] 104 % of control | [5] 109 % of control | [8] 104 % of control | [9] 114 % of control

C[N+](C)(CC(=O)Nc1ccc(Cl)c(C(F)(F)F)c1)CC(=O)c1ccc(Cl)c(Cl)c1
inactive: [6] 100 % of control | dose: 400.0 mg/kg/injection, schedule: Q04DX003 (ip), vehicle: saline sonified 104 % of control

Nc1ncnc2c1ncn2C1CC(CO)C(O)C1O (stereo unspecified)
inactive: dose: 6.25 mg/kg/injection, schedule: Q01DX009 (ip), vehicle: carboxymethylcellulose (CMC) 100 % of control | dose: 12.5 mg/kg/injection, schedule: Q01DX009 (ip), vehicle: carboxymethylcellulose (CMC) 95 % of control

Cc1cccc(OS(=O)(=O)c2ccccc2[N+](=O)[O-])c1
inactive: dose: 100.0 mg/kg/injection, schedule: Q01DX001 (ip), vehicle: saline sonified 100 % of control | dose: 200.0 mg/kg/injection, schedule: Q01DX001 (ip), vehicle: saline sonified 110 % of control | dose: 400.0 mg/kg/injection, schedule: Q01DX001 (ip), vehicle: saline sonified 100 % of control
